From ChEMBL document CHEMBL2396621, “Design, synthesis and biological evaluation of 2-mercapto-3-phenethylquinazoline bearing anilide fragments as potential antitumor agents: molecular docking study” (2013)

Legend:
Format in all cases: functional
NCI-H322M = experiment: Cytotoxicity against human NCI-H322M cells assessed as growth inhibition at 10 uM after 48 hrs by coulter counter analysis; details: read-out: GI
NCI-H23 = experiment: Cytotoxicity against human NCI-H23 cells assessed as growth inhibition at 10 uM after 48 hrs by coulter counter analysis; details: NCI-H23, 48 h, read-out: GI
NCI-H226 = experiment: Cytotoxicity against human NCI-H226 cells assessed as growth inhibition at 10 uM after 48 hrs by coulter counter analysis; details: NCI-H226, 48 h, read-out: GI
HOP-62 = experiment: Cytotoxicity against human HOP62 cells assessed as growth inhibition at 10 uM after 48 hrs by coulter counter analysis; details: HOP-62, 48 h, read-out: GI
[1] = Cytotoxicity against human EKVX cells assessed as growth inhibition at 10 uM after 48 hrs by coulter counter analysis; details: read-out: GI
MDA-MB-468 = experiment: Cytotoxicity against human MDA-MB-468 cells assessed as growth inhibition at 10 uM after 48 hrs by coulter counter analysis; details: MDA-MB-468, 48 h, read-out: GI
Hs-578T = experiment: Cytotoxicity against human Hs578T cells assessed as growth inhibition at 10 uM after 48 hrs by coulter counter analysis; details: read-out: GI
DU-145 = experiment: Cytotoxicity against human DU145 cells assessed as growth inhibition at 10 uM after 48 hrs by coulter counter analysis; details: DU-145, 48 h, read-out: GI
PC-3 = experiment: Cytotoxicity against human PC3 cells assessed as growth inhibition at 10 uM after 48 hrs by coulter counter analysis; details: PC-3, 48 h, read-out: GI
UO-31 = experiment: Cytotoxicity against human UO31 cells assessed as growth inhibition at 10 uM after 48 hrs by coulter counter analysis; details: UO-31, 48 h, read-out: GI
TK-10 = experiment: Cytotoxicity against human TK10 cells assessed as growth inhibition at 10 uM after 48 hrs by coulter counter analysis; details: TK-10, 48 h, read-out: GI
CAKI-1 = experiment: Cytotoxicity against human Caki1 cells assessed as growth inhibition at 10 uM after 48 hrs by coulter counter analysis; details: CAKI-1, 48 h, read-out: GI
ACHN = experiment: Cytotoxicity against human ACHN cells assessed as growth inhibition at 10 uM after 48 hrs by coulter counter analysis; details: read-out: GI
786-0 = experiment: Cytotoxicity against human 786-0 cells assessed as growth inhibition at 10 uM after 48 hrs by coulter counter analysis; details: 786-0, 48 h, read-out: GI
[2] = Cytotoxicity against human NCI-ADR-RES cells assessed as growth inhibition at 10 uM after 48 hrs by coulter counter analysis; details: read-out: GI
OVCAR-8 = experiment: Cytotoxicity against human OVCAR8 cells assessed as growth inhibition at 10 uM after 48 hrs by coulter counter analysis; details: OVCAR-8, 48 h, read-out: GI
OVCAR-4 = experiment: Cytotoxicity against human OVCAR4 cells assessed as growth inhibition at 10 uM after 48 hrs by coulter counter analysis; details: OVCAR-4, 48 h, read-out: GI
OVCAR-3 = experiment: Cytotoxicity against human OVCAR3 cells assessed as growth inhibition at 10 uM after 48 hrs by coulter counter analysis; details: OVCAR-3, 48 h, read-out: GI
IGROV-1 = experiment: Cytotoxicity against human IGROV1 cells assessed as growth inhibition at 10 uM after 48 hrs by coulter counter analysis; details: IGROV-1, 48 h, read-out: GI
UACC-62 = experiment: Cytotoxicity against human UACC62 cells assessed as growth inhibition at 10 uM after 48 hrs by coulter counter analysis; details: UACC-62, 48 h, read-out: GI
UACC-257 = experiment: Cytotoxicity against human UACC257 cells assessed as growth inhibition at 10 uM after 48 hrs by coulter counter analysis; details: UACC-257, 48 h, read-out: GI
SK-MEL-5 = experiment: Cytotoxicity against human SK-MEL-5 cells assessed as growth inhibition at 10 uM after 48 hrs by coulter counter analysis; details: SK-MEL-5, 48 h, read-out: GI
SK-MEL-28 = experiment: Cytotoxicity against human SK-MEL-28 cells assessed as growth inhibition at 10 uM after 48 hrs by coulter counter analysis; details: SK-MEL-28, 48 h, read-out: GI
MDA-MB-435 = experiment: Cytotoxicity against human MDA-MB-435 cells assessed as growth inhibition at 10 uM after 48 hrs by coulter counter analysis; details: MDA-MB-435, 48 h, read-out: GI
M14 = experiment: Cytotoxicity against human M14 cells assessed as growth inhibition at 10 uM after 48 hrs by coulter counter analysis; details: M14, 48 h, read-out: GI
LOX IMVI = experiment: Cytotoxicity against human LOXIMVI cells assessed as growth inhibition at 10 uM after 48 hrs by coulter counter analysis; details: read-out: GI
U-251 = experiment: Cytotoxicity against human U251 cells assessed as growth inhibition at 10 uM after 48 hrs by coulter counter analysis; details: U-251, 48 h, read-out: GI
SNB-75 = experiment: Cytotoxicity against human SNB75 cells assessed as growth inhibition at 10 uM after 48 hrs by coulter counter analysis; details: SNB-75, 48 h, read-out: GI
SF-295 = experiment: Cytotoxicity against human SF295 cells assessed as growth inhibition at 10 uM after 48 hrs by coulter counter analysis; details: SF-295, 48 h, read-out: GI
SF-268 = experiment: Cytotoxicity against human SF268 cells assessed as growth inhibition at 10 uM after 48 hrs by coulter counter analysis; details: SF-268, 48 h, read-out: GI
KM12 = experiment: Cytotoxicity against human KM12 cells assessed as growth inhibition at 10 uM after 48 hrs by coulter counter analysis; details: KM12, 48 h, read-out: GI
HT-29 = experiment: Cytotoxicity against human HT-29 cells assessed as growth inhibition at 10 uM after 48 hrs by coulter counter analysis; details: HT-29, 48 h, read-out: GI
HCT-15 = experiment: Cytotoxicity against human HCT15 cells assessed as growth inhibition at 10 uM after 48 hrs by coulter counter analysis; details: HCT-15, 48 h, read-out: GI
HCT-116 = experiment: Cytotoxicity against human HCT116 cells assessed as growth inhibition at 10 uM after 48 hrs by coulter counter analysis; details: HCT-116, 48 h, read-out: GI
HCC 2998 = experiment: Cytotoxicity against human HCC2998 cells assessed as growth inhibition at 10 uM after 48 hrs by coulter counter analysis; details: HCC 2998, 48 h, read-out: GI
COLO 205 = experiment: Cytotoxicity against human COLO205 cells assessed as growth inhibition at 10 uM after 48 hrs by coulter counter analysis; details: COLO 205, 48 h, read-out: GI
NCI-H460 = experiment: Cytotoxicity against human NCI-H460 cells assessed as growth inhibition at 10 uM after 48 hrs by coulter counter analysis; details: NCI-H460, 48 h, read-out: GI

For `O=C(CSc1nc2ccccc2c(=O)n1CCc1ccccc1)Nc1ccc(F)cc1`, the inhibition of growth at 10 µM (NCI-H322M) was 17%, the inhibition of growth at 10 µM (NCI-H23) was 12% and the inhibition of growth at 10 µM (NCI-H226) was under 10%. It also gave an inhibition of growth at 10 µM (HOP-62) of under 10%, an inhibition of growth at 10 µM [1] of 24% and an inhibition of growth at 10 µM (MDA-MB-468) of 23%. It also gave an inhibition of growth at 10 µM (Hs-578T) of 16%, an inhibition of growth at 10 µM (DU-145) of under 10% and an inhibition of growth at 10 µM (PC-3) of 16%. It also gave an inhibition of growth at 10 µM (UO-31) of 31%, an inhibition of growth at 10 µM (TK-10) of under 10% and an inhibition of growth at 10 µM (CAKI-1) of 22%. The inhibition of growth at 10 µM (ACHN) was 16%, the inhibition of growth at 10 µM (786-0) was under 10% and the inhibition of growth at 10 µM [2] was under 10%. The inhibition of growth at 10 µM (OVCAR-8) was under 10%, the inhibition of growth at 10 µM (OVCAR-4) was under 10% and the inhibition of growth at 10 µM (OVCAR-3) was under 10%. For the same molecule, the inhibition of growth at 10 µM (IGROV-1) was 16%, the inhibition of growth at 10 µM (UACC-62) was 25% and the inhibition of growth at 10 µM (UACC-257) was under 10%. It also gave an inhibition of growth at 10 µM (SK-MEL-5) of 16%, an inhibition of growth at 10 µM (SK-MEL-28) of under 10% and an inhibition of growth at 10 µM (MDA-MB-435) of under 10%. It also gave an inhibition of growth at 10 µM (M14) of 18%, an inhibition of growth at 10 µM (LOX IMVI) of 18% and an inhibition of growth at 10 µM (U-251) of 17%. The inhibition of growth at 10 µM (SNB-75) was under 10%, the inhibition of growth at 10 µM (SF-295) was 13% and the inhibition of growth at 10 µM (SF-268) was under 10%. The inhibition of growth at 10 µM (KM12) was under 10%, the inhibition of growth at 10 µM (HT-29) was 10% and the inhibition of growth at 10 µM (HCT-15) was 10%. It also gave an inhibition of growth at 10 µM (HCT-116) of 19%, an inhibition of growth at 10 µM (HCC 2998) of under 10% and an inhibition of growth at 10 µM (COLO 205) of under 10%. It also gave an inhibition of growth at 10 µM (NCI-H460) of under 10%.
`CC(=O)c1ccc(NC(=O)CSc2nc3ccccc3c(=O)n2CCc2ccccc2)cc1` gave an inhibition of growth at 10 µM (NCI-H322M) of 27%, an inhibition of growth at 10 µM (NCI-H23) of 12% and an inhibition of growth at 10 µM (NCI-H226) of 16%. For the same molecule, the inhibition of growth at 10 µM (HOP-62) was 22%, the inhibition of growth at 10 µM [1] was 29% and the inhibition of growth at 10 µM (MDA-MB-468) was 14%. The inhibition of growth at 10 µM (Hs-578T) was 33%, the inhibition of growth at 10 µM (DU-145) was 11% and the inhibition of growth at 10 µM (PC-3) was 20%. It also gave an inhibition of growth at 10 µM (UO-31) of 10%, an inhibition of growth at 10 µM (TK-10) of under 10% and an inhibition of growth at 10 µM (CAKI-1) of 16%. It also gave an inhibition of growth at 10 µM (ACHN) of 30%, an inhibition of growth at 10 µM (786-0) of under 10% and an inhibition of growth at 10 µM [2] of 33%. It also gave an inhibition of growth at 10 µM (OVCAR-8) of 42%, an inhibition of growth at 10 µM (OVCAR-4) of 25% and an inhibition of growth at 10 µM (OVCAR-3) of 23%. It also gave an inhibition of growth at 10 µM (IGROV-1) of 20%, an inhibition of growth at 10 µM (UACC-62) of 28% and an inhibition of growth at 10 µM (UACC-257) of 36%. The inhibition of growth at 10 µM (SK-MEL-5) was 25%, the inhibition of growth at 10 µM (SK-MEL-28) was 23% and the inhibition of growth at 10 µM (MDA-MB-435) was 23%. For the same molecule, the inhibition of growth at 10 µM (M14) was 21%, the inhibition of growth at 10 µM (LOX IMVI) was 25% and the inhibition of growth at 10 µM (U-251) was 10%. The inhibition of growth at 10 µM (SNB-75) was 41%, the inhibition of growth at 10 µM (SF-295) was 21% and the inhibition of growth at 10 µM (SF-268) was 32%. The inhibition of growth at 10 µM (KM12) was 18%, the inhibition of growth at 10 µM (HT-29) was 12% and the inhibition of growth at 10 µM (HCT-15) was 21%. For the same molecule, the inhibition of growth at 10 µM (HCT-116) was 37%, the inhibition of growth at 10 µM (HCC 2998) was under 10% and the inhibition of growth at 10 µM (COLO 205) was 12%. It also gave an inhibition of growth at 10 µM (NCI-H460) of 31%.
